Measurements as given in patent publication US10414754B2, “Indolizine compounds, a process for their preparation and pharmaceutical compositions containing them” (LES LABORATOIRES SERVIER, priority 2013, dated 2019).
Where a name gives a salt, the structure may show the parent alone.

Columns and labels:
[1] = tested on: RS4;11 leukaemia tumour line; assay: In vitro cytotoxicity (MTT) on RS4;11; format: cell-based; conditions: RS4;11 cells, 48 hours exposure
Procedure: The cytotoxicity studies were carried out on the RS4;11 leukaemia tumour line.
The cells are distributed onto microplates and exposed to the test compounds for 48 hours.
The cell viability is then quantified by a colorimetric assay, the Microculture Tetrazolium Assay (Cancer Res., 1987, 47, 939-942).

Bcl-2 protein = molecular target: T1, Bcl-2 protein (histag-Bcl-2, UniProtKB P10415) (Homo sapiens, UniProt P10415); assay: Inhibition of Bcl-2 by the fluorescence polarisation technique; format: binding; conditions: for IC50: fluorescence polarisation, 2 hours incubation, read-out: IC50 (nM) Bcl-2 FP
T1 construct: His tag
Method in brief: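 Fluorescence polarisation competition: His-tagged human Bcl-2 (2.50×10^−8 M final) was mixed with fluorescein-labelled peptide (1.00×10^−8 M final) and increasing compound concentrations. Buffer was 10 mM Hepes, 150 mM NaCl, 0.05% Tween20, pH 7.4. Polarisation was read after 2 h.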

T1 sequence (P10415 whole entry): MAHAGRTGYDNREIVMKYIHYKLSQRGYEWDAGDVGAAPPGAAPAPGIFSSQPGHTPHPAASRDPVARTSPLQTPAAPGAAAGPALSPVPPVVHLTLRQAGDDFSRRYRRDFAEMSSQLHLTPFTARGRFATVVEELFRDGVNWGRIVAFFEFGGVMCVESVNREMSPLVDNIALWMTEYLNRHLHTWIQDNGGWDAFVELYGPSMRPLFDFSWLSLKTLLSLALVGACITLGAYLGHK

Compound | IC50 (Bcl-2 protein) | percentage fluorescence polarisation inhibition (partial inhibitors), Bcl-2 FP (Bcl-2 protein; @ 10 μM test compound) | IC50 ([1]; Homo sapiens) | IC50 [1]
O=C(c1cc2c(cc1-c1cc(C(=O)N(c3ccccc3)c3ccc(O)cc3)c3n1CCCC3)OCO2)N1CCc2ccccc2C1 [Example 57, 3-[6-(3,4-Dihydroisoquinolin-2(1H)-ylcarbonyl)-1,3-benzodioxol-5-yl]-N-(4-hydroxyphenyl)-N-phenyl-5,6,7,8-tetrahydroindolizine-1-carboxamide] | 21.2 nM | – | 282 nM | –
C[C@@H]1Cc2ccccc2CN1C(=O)c1cc2c(cc1-c1cc(C(=O)N(C)c3ccc(O)cc3)c3n1CCNC3)OCO2 [Example 72, N-(4-Hydroxyphenyl)-N-methyl-6-(6-{[(3R)-3-methyl-3,4-dihydroiso-quinolin-2(1H)-yl]carbonyl}-1,3-benzodioxol-5-yl)-1,2,3,4-tetrahydropyrrolo[1,2-a]-pyrazine-8-carboxamide] | 90.2 nM | – | 1520 nM | –
CCN(C(=O)c1cc(-c2cc3c(cc2C(=O)N2Cc4ccccc4C[C@H]2C)OCO3)n2c1CNCC2)c1ccc(O)cc1 [Example 73, N-Ethyl-N-(4-hydroxyphenyl)-6-(6-{[(3R)-3-methyl-3,4-dihydroiso-quinolin-2(1H)-yl]carbonyl}-1,3-benzodioxol-5-yl)-1,2,3,4-tetrahydropyrrolo[1,2-a]-pyrazine-8-carboxamide] | 83.6 nM | – | 1320 nM | –
CN(C(=O)c1cc(-c2cc3c(cc2C(=O)N2CCc4ccccc4C2)OCO3)n2c1CCCC2)c1ccc(O)cc1 [Example 74, 3-[6-(3,4-Dihydroisoquinolin-2(1H)-ylcarbonyl)-1,3-benzodioxol-5-yl]-N-(4-hydroxyphenyl)-N-methyl-5,6,7,8-tetrahydroindolizine-1-carboxamide] | 68.7 nM | – | 1340 nM | –
CCN(C(=O)c1cc(-c2cc3c(cc2C(=O)N2CCc4ccccc4C2)OCO3)n2c1CCCC2)c1ccc(O)cc1 [Example 75, 3-[6-(3,4-Dihydroisoquinolin-2(11)-ylcarbonyl)-1,3-benzodioxol-5-yl]-N-ethyl-N-(4-hydroxyphenyl)-5,6,7,8-tetrahydroindolizine-1-carboxamide] | 67.7 nM | – | 1360 nM | –
CCCCN(C(=O)c1cc(-c2cc3c(cc2C(=O)N2CCc4ccccc4C2)OCO3)n2c1CCCC2)c1ccc(O)cc1 [Example 76, N-Butyl-3-[6-(3,4-dihydroisoquinolin-2(1H)-ylcarbonyl)-1,3-benzo-dioxol-5-yl]-N-(4-hydroxyphenyl)-5,6,7,8-tetrahydroindolizine-1-carboxamide] | 77.6 nM | – | 1630 nM | –
CCN(C(=O)c1cc(-c2cc3c(cc2C(=O)N2Cc4ccccc4C[C@@H]2C)OCO3)n2c1CNCC2)c1ccc(O)cc1 [Example 77, N-Ethyl-N-(4-hydroxyphenyl)-6-(6-{[(3S)-3-methyl-3,4-dihydroiso-quinolin-2(1H)-yl]carbonyl}-1,3-benzodioxol-5-yl)-1,2,3,4-tetrahydropyrrolo[1,2-a]-pyrazine-8-carboxamide] | – | 25.1% @ 10 μM | – | 1880 nM
CCCCN(CCCC)C(=O)c1cc(-c2cc3c(cc2C(=O)N2Cc4ccccc4C[C@H]2C)OCO3)n2c1CNCC2 [Example 78, N,N-Dibutyl-6-(6-{[(3R)-3-methyl-3,4-dihydroisoquinolin-2(1H)-yl]-carbonyl}-1,3-benzodioxol-5-yl)-1,2,3,4-tetrahydropyrrolo[1,2-a]pyrazine-8-carboxamide] | 823 nM | – | 1880 nM | –
CCCCN(C(=O)c1cc(-c2cc3c(cc2C(=O)N2Cc4ccccc4C[C@H]2C)OCO3)n2c1CNCC2)c1ccc(O)cc1 [Example 79, N-Butyl-N-(4-hydroxyphenyl)-6-(6-{[(3R)-3-methyl-3,4-dihydroiso-quinolin-2(1H)-yl]carbonyl}-1,3-benzodioxol-5-yl)-1,2,3,4-tetrahydropyrrolo[1,2-a]-pyrazine-8-carboxamide] | 99.1 nM | – | 1010 nM | –

Second part, led by results:

IC50 (Bcl-2 protein) | percentage fluorescence polarisation inhibition (partial inhibitors), Bcl-2 FP (Bcl-2 protein; @ 10 μM test compound) | Compound | IC50 ([1]; Homo sapiens) | IC50 [1]
4.7 nM | – | COc1cc(N(C(=O)c2cc(-c3cc4c(cc3C(=O)N3Cc5ccccc5C[C@H]3C)OCO4)n3ccccc23)c2ccc(O)cc2)ccn1 [Example 56, N-(4-Hydroxyphenyl)-N-(2-methoxypyridin-4-yl)-3-(6-{[(3R)-3-methyl-3,4-dihydroisoquinolin-2(1H)-yl]carbonyl}-1,3-benzodioxol-5-yl)indolizine-1-carboxamide] | 36.7 nM | –
6.4 nM | – | CC(C)c1cc(N(C(=O)c2cc(-c3cc4c(cc3C(=O)N3Cc5ccccc5C[C@H]3C)OCO4)n3ccccc23)c2ccc(O)cc2)ccn1 [Example 58, N-(4-Hydroxyphenyl)-3-(6-{[(3R)-3-methyl-3,4-dihydroisoquinolin-2(1H)-yl]carbonyl}-1,3-benzodioxol-5-yl)-N-[2-(propan-2-yl)pyridin-4-yl)indolizine-1-carboxamide hydrochloride] | 68.5 nM | –
4 nM | – | C[C@@H]1Cc2ccccc2CN1C(=O)c1cc2c(cc1-c1cc(C(=O)N(c3ccc(O)cc3)c3cnc4ccnn4c3)c3ccccn13)OCO2 [Example 59, N-(4-Hydroxyphenyl)-3-(6-{[(3R)-3-methyl-3,4-dihydroisoquinolin-2(1H)-yl]carbonyl}-1,3-benzodiaxol-5-yl)-N-(pyrazolo[1,5-a]pyrimidin-6-yl)indolizine-1-carboxamide] | 21.2 nM | –
5.4 nM | – | C[C@@H]1Cc2ccccc2CN1C(=O)c1ccc(F)cc1-c1cc(C(=O)N(c2ccc(O)cc2)c2cnn(C)c2)c2ccccn12 [Example 60, 3-(5-Fluoro-2-{[(3R)-3-methyl-3,4-dihydroisoquinolin-2(1H)-yl]-carbonyl}phenyl)-N-(4-hydroxyphenyl)-N-(1-methyl-1H-pyrazol-4-yl)indolizine-1-carboxamide] | 60.3 nM | –
7 nM | – | C[C@@H]1Cc2ccccc2CN1C(=O)c1ccc(F)cc1-c1cc(C(=O)N(c2ccc(O)cc2)c2cnn(C)c2)c2n1CCCC2 [Example 61, 3-(5-Fluoro-2-{[(3R)-3-methyl-3,4-dihydroisoquinolin-2(1H)-yl]-carbonyl}phenyl)-N-(4-hydroxyphenyl)-N-(1-methyl-1H-pyrazol-4-yl)-5,6,7,8-tetrahydroindolizine-1-carboxamide] | 61.3 nM | –
5.6 nM | – | C[C@@H]1Cc2ccccc2CN1C(=O)c1ccc(F)cc1-c1cc(C(=O)N(c2ccncc2)c2ccc(O)cc2)c2ccccn12 [Example 62, 3-(5-Fluoro-2-{[(3R)-3-methyl-3,4-dihydroisoquinolin-2(1H)-yl]-carbonyl}phenyl)-N-(4-hydroxyphenyl)-N-(pyridin-4-yl)indolizine-1-carboxamide] | 96.6 nM | –
6.2 nM | – | C[C@@H]1Cc2ccccc2CN1C(=O)c1ccc(F)cc1-c1cc(C(=O)N(c2ccc(O)cc2)c2cnc3c(ccn3C)c2)c2ccccn12 [Example 63, 3-(5-Fluoro-2-{[(3R)-3-methyl-3,4-dihydroisoquinolin-2(1H)-yl]-carbonyl}phenyl)-N-(4-hydroxyphenyl)-N-(1-methyl-1H-pyrrolo[2,3-b]pyridin-5-yl)indolizine-1-carboxamide] | 25.4 nM | –
7.8 nM | – | C[C@@H]1Cc2ccccc2CN1C(=O)c1ccc(F)cc1-c1cc(C(=O)N(c2ccncc2)c2ccc(O)cc2)c2n1CCCC2 [Example 64, 3-(5-Fluoro-2-{[(3R)-3-methyl-3,4-dihydroisoquinolin-2(1H)-yl]-carbonyl}phenyl)-N-(4-hydroxyphenyl)-N-(pyridin-4-yl)-5,6,7,8-tetrahydroindolizine-1-carboxamide] | 282 nM | –
5.3 nM | – | C[C@@H]1Cc2ccccc2CN1C(=O)c1ccc(F)cc1-c1cc(C(=O)N(c2ccc(O)cc2)c2cnc3c(ccn3C)c2)c2n1CCCC2 [Example 65, 3-(5-Fluoro-2-{[(3R)-3-methyl-3,4-dihydroisoquinolin-2(1H)-yl]-carbonyl}phenyl)-N-(4-hydroxyphenyl)-N-(1-methyl-1H-pyrrolo[2,3-b]pyridin-5-yl)-5,6,7,8-tetrahydroindolizine-1-carboxamide] | 62.8 nM | –
4.7 nM | – | C[C@@H]1Cc2ccccc2CN1C(=O)c1cc2c(cc1-c1cc(C(=O)N(c3ccc(O)cc3)c3cnc4ncnn4c3)c3ccccn13)OCO2 [Example 66, N-(4-Hydroxyphenyl)-3-(6-{[(3R)-3-methyl-3,4-dihydroisoquinolin-2(1H)-yl]carbonyl}-1,3-benzodioxol-5-yl)-N-([1,2,4]triazolo[1,5-a]pyrimidin-6-yl)-indolizine-1-carboxamide] | 42 nM | –
8.3 nM | – | C[C@@H]1Cc2ccccc2CN1C(=O)c1ccccc1-c1cc(C(=O)N(c2ccncc2)c2ccc(O)cc2)c2ccccn12 [Example 68, N-(4-Hydroxyphenyl)-3-(2-{[(3R)-3-methyl-3,4-dihydroisoquinolin-2(1H)-yl]carbonyl}phenyl)-N-(pyridin-4-yl)indolizine-1-carboxamide hydrochloride] | 82.4 nM | –
4.6 nM | – | Cn1ccc2cc(N(C(=O)c3cc(-c4cc5c(cc4C(=O)N4Cc6ccccc6C[C@H]4CCCN4CCOCC4)OCO5)n4c3CCCC4)c3ccc(O)cc3)cnc21 [Example 69, N-(4-Hydroxyphenyl)-N-(1-methyl-1H-pyrrolo[2,3-b]pyridin-5-yl)-3-(6-{[(3R)-3-[3-(morpholin-4-yl)propyl]-3,4-dihydroisoquinolin-2(1H)-yl]carbonyl}-1,3-benzodioxol-5-yl)-5,6,7,8-tetrahydroindolizine-1-carboxamide hydrochloride] | 1.38 nM | –
5.2 nM | – | C[C@@H]1Cc2ccccc2CN1C(=O)c1cc2c(cc1-c1cc(C(=O)N(c3ccc(O)cc3)c3cnc4c(cnn4C)c3)c3ccccn13)OCO2 [Example 70, N-(4-Hydroxyphenyl)-3-(6-{[(3R)-3-methyl-3,4-dihydroisoquinolin-2(1,H)-yl]carbonyl]-1,3-benzodioxol-5-yl)-N-(1-methyl-1H-pyrazolo[3,4-b]pyridin-5-yl)indolizine-1-carboxamide] | 6.17 nM | –
